From patent US10617693B2, “Methods of treating and/or preventing actinic keratosis” (Athenex, Inc., priority 2017, dated 2020)

Tested on: subjects with AK on the dorsal forearm
Assay: Phase 1 study KX01-AK-01-US: local skin reactions (investigator score 0 none to 4 severe; subject score 0 none to 3 severe) and adverse events
[1] = Cohort 3: 0.5 mg/25 cm^2 QD x5 days, N=8
[2] = Cohort 4: 2 mg/100 cm^2 QD x5 days, N=8

Protocol: A Phase 1, single-center, safety, tolerability and pharmacokinetic study of KX-01 was performed on subjects with AK on the dorsal forearm. This was an open-label, uncontrolled, nonrandomized, sequential group clinical trial conducted at a single investigational center in the United States. The primary objectives of the study were to assess the safety, tolerability and pharmacokinetics of KX-01 in subjects with AK. The secondary objective was to evaluate the activity of KX-01 administered topically to the dorsal forearm in subjects with AK.
KX-01 was administered topically on treatment days. All subjects were monitored for safety and tolerability that included LSRs, AEs, vital signs, clinical laboratory tests, ECGs, and physical examinations at baseline and at pre-defined time points during treatment and follow-up on days 1, 2, 3, 4, 5, 8, 10, 17, 31 and 45.
LSRs (erythema, flaking/scaling, crusting, swelling, vesiculation/pustulation, erosion/ulceration) were assessed by the investigator or trained designee using a 4-point scale according to the protocol. The subject's assessment of the symptoms (stinging/burning, pruritus) associated with irritation of the treatment area was evaluated on a 4-point scale (0=none, 1=mild, 2=moderate, 3=severe). Subjects were queried for spontaneously reported AEs at each study visit before assessment of LSRs. LSRs and AEs were reported separately. All LSRs were to be followed to resolution or stabilization.

## O=C(Cc1ccc(-c2ccc(OCCN3CCOCC3)cc2)cn1)NCc1ccccc1 [KX-01]
[1]
  Crusting max score 0, number of subjects: 1
  Crusting max score 1, number of subjects: 7
  Crusting max score 2, number of subjects: 0
  Crusting max score 3, number of subjects: 0
  Crusting max score 4, number of subjects: 0
  Erosions/ulcers max score 0, number of subjects: 8
  Erosions/ulcers max score 1, number of subjects: 0
  Erosions/ulcers max score 2, number of subjects: 0
  Erosions/ulcers max score 3, number of subjects: 0
  Erosions/ulcers max score 4, number of subjects: 0
  Erythema max score 0, number of subjects: 0
  Erythema max score 1, number of subjects: 2
  Erythema max score 2, number of subjects: 4
  Erythema max score 3, number of subjects: 2
  Erythema max score 4, number of subjects: 0
  Flaking/scaling max score 0, number of subjects: 0
  Flaking/scaling max score 1, number of subjects: 2
  Flaking/scaling max score 2, number of subjects: 2
  Flaking/scaling max score 3, number of subjects: 4
  Flaking/scaling max score 4, number of subjects: 0
  Pruritus (subject-assessed) max score 0, number of subjects: 2
  Pruritus (subject-assessed) max score 1, number of subjects: 4
  Pruritus (subject-assessed) max score 2, number of subjects: 1
  Pruritus (subject-assessed) max score 3, number of subjects: 1
  Stinging (subject-assessed) max score 0, number of subjects: 6
  Stinging (subject-assessed) max score 1, number of subjects: 1
  Stinging (subject-assessed) max score 2, number of subjects: 1
  Stinging (subject-assessed) max score 3, number of subjects: 0
  Swelling max score 0, number of subjects: 4
  Swelling max score 1, number of subjects: 1
  Swelling max score 2, number of subjects: 0
  Swelling max score 3, number of subjects: 3
  Swelling max score 4, number of subjects: 0
  Vesicles/pustules max score 0, number of subjects: 8
  Vesicles/pustules max score 1, number of subjects: 0
  Vesicles/pustules max score 2, number of subjects: 0
  Vesicles/pustules max score 3, number of subjects: 0
  Vesicles/pustules max score 4, number of subjects: 0
[2]
  Burning (subject-assessed) max score 0, number of subjects: 4
  Burning (subject-assessed) max score 1, number of subjects: 4
  Burning (subject-assessed) max score 2, number of subjects: 0
  Burning (subject-assessed) max score 3, number of subjects: 0
  Crusting max score 0, number of subjects: 4
  Crusting max score 1, number of subjects: 4
  Crusting max score 2, number of subjects: 0
  Crusting max score 3, number of subjects: 0
  Crusting max score 4, number of subjects: 0
  Erosions/ulcers max score 0, number of subjects: 7
  Erosions/ulcers max score 1, number of subjects: 1
  Erosions/ulcers max score 2, number of subjects: 0
  Erosions/ulcers max score 3, number of subjects: 0
  Erosions/ulcers max score 4, number of subjects: 0
  Erythema max score 0, number of subjects: 0
  Erythema max score 1, number of subjects: 2
  Erythema max score 2, number of subjects: 4
  Erythema max score 3, number of subjects: 2
  Erythema max score 4, number of subjects: 0
  Flaking/scaling max score 0, number of subjects: 0
  Flaking/scaling max score 1, number of subjects: 2
  Flaking/scaling max score 2, number of subjects: 4
  Flaking/scaling max score 3, number of subjects: 2
  Flaking/scaling max score 4, number of subjects: 0
  Pruritus (subject-assessed) max score 0, number of subjects: 0
  Pruritus (subject-assessed) max score 1, number of subjects: 4
  Pruritus (subject-assessed) max score 2, number of subjects: 4
  Pruritus (subject-assessed) max score 3, number of subjects: 0
  Stinging (subject-assessed) max score 0, number of subjects: 5
  Stinging (subject-assessed) max score 1, number of subjects: 3
  Stinging (subject-assessed) max score 2, number of subjects: 0
  Stinging (subject-assessed) max score 3, number of subjects: 0
  Swelling max score 0, number of subjects: 1
  Swelling max score 1, number of subjects: 6
  Swelling max score 2, number of subjects: 1
  Swelling max score 3, number of subjects: 0
  Swelling max score 4, number of subjects: 0
  Vesicles/pustules max score 0, number of subjects: 8
  Vesicles/pustules max score 1, number of subjects: 0
  Vesicles/pustules max score 2, number of subjects: 0
  Vesicles/pustules max score 3, number of subjects: 0
  Vesicles/pustules max score 4, number of subjects: 0
All TEAEs
  Severity of TEAEs: mild to moderate
All cohorts
  Local tolerability: acceptable
  Number of TEAEs: 10
  Subjects reporting treatment emergent adverse events (TEAEs): Four of 30
  Subjects with a vesicle or pustule: No subject
  Subjects with an LSR score of 4 in any category: No subject
All cohorts, 30 subjects
  Subjects with LSRs as assessed by the Investigator: 30
human, in vivo
  Day by which application-site symptoms resolved: ≤ 45 days
  Nature of local skin reactions: primarily mild
In general
  Day LSRs appeared: 2 days
Of 30 subjects
  Subjects with erythema and/or flaking/scaling score 1 or 2 at day 45: Fifteen
